Tests used:
maggot peripheral nerves = experiment: Extracellular recording from house fly larval peripheral nerves; assay type: cell-based, Musca domestica
[1] = tested on: maggot neuromuscular junction; experiment: Neuromuscular junction EPSP recording in house fly larvae; assay type: cell-based, Musca domestica
[2] = tested on: beet armyworm (Spodoptera exigua); experiment: Toxin injection PD50 in BAW larvae; assay type: in vivo
[3] = tested on: cabbage looper (Trichoplusia ni); experiment: Toxin injection PD50 in CL larvae; assay type: in vivo
[4] = tested on: tobacco budworm (Heliothis virescens); experiment: Injection paralysis assay in tobacco budworm larvae; assay type: in vivo
mice = assay type: in vivo; conditions: i.p., approximate dose 0.9 mg/kg
Procedure: Whole venom, 5 μl, obtained from D. canities as described herein was fatal to mice by intraperitoneal injection (i.p.) in three separate tests. Treated mice were initially indistinguishable from saline controls. About 10 to 15 minutes after injection, treated mice became moderately hyperactive, displaying a characteristic hopping gait; this was followed by a short period of uncoordination, labored breathing and convulsions. Death followed within 2 minutes of the initial onset of symptoms.
Residue 9.2 was injected into the intracerebral ventricles in four mice (approx. 28 gm) at a dose of approximately 30 μg per animal (approximately 1 mg/kg).
To characterize the vertebrate toxicity of this venom, pooled reversed-phase fractions of whole venom were tested in mice (FIG. 1). Fraction 2 comprised the components with tobacco budworm (TBW) activity.

Molecule	effect on DK 9.2-induced increase in nerve discharge (maggot peripheral nerves)	effect on sensitivity to subsequent treatment with 100 nM DK 9.2 [1]	effect on the EPSP [1]	PD50 [2]	PD50 [3]	PD50 ([4]; TBW larvae, injection, probit analysis)	insects exhibiting paralysis after 24 hours ([4]; TBW, 5.0 WVE/g, 24 hours)	insects exhibiting paralysis after 48 hours ([4]; TBW, 5.0 WVE/g, 48 hours)	effects in mice within 24 hours (mice)
NC1=N[C@H](O)[C@H]2[C@H]3O[C@]4(O)O[C@@H]([C@@H](O)[C@@]2(N1)[C@@H]4O)[C@]3(O)CO [TTX, tetrodotoxin]	rapidly blocked	rendered the preparation insensitive	rapidly blocked	–	–	–	–	–	–
DK 11: Insecticidal peptide isolated from Diguetia canities venom, SEQ ID NO:3, about 6700 or 6740 daltons (AKDGDVKGPAGCMKYKSGDCRGKTCCDQQ)	–	–	–	< 1.5 nmol/gm	0.86 nmol/gm	0.71 nmol/gm	80%	60%	no effects seen
